Each molecule was assayed on Helicoverpa armigera (assay: Helicoverpa armigera diet incorporation method). Settings: third instar larvae, dead and moribund combined, 96 h after release.
Format: in vivo
Experimental: (§1) Test Solutions were Prepared According to the Procedure Described Herein Below (500 PPM):
(§2) • 1. Eppendorf Vortex mixer (ThermoMixer C) and 1.5 mL Eppendorf tubes • 2. Zirconia (Zirconium-Yttrium) beads having diameter of 0.8 to 1.0 mm • 3. Microscope • 4. Beaker 100 mL • 5. Micro-pipette Reagents: • 1. Surfactant Solution • 2. De-mineralized (DM) Water • 1. Weigh 10 mg of the compound of the present invention to be tested in an Eppendorf Tube. • 2. Add 200 mg of the Surfactant Solution into the tube. • 3. Add 600 mg of Zirconia beads into the above mixture. • 4. Fix the tube in Eppendorf Vortex mixer and start vortexing at 2000 rpm. • 5. Mix on Vortex mixer for 30 minutes. After 30 minutes, observe the sample over a microscope at 400× resolution. • 6. If the Maximum particle size is more than 5 μm or average particle size is more than 2 μm or the particle size distribution is uneven, continue vortexing for another 30 minutes and again check the particle size using the microscope. Continue till the average particle size is below 2 microns. • 7. When the required particle size is achieved, add 1.0 mL DM water into the tube, close the cap, shake the tube thoroughly and transfer the contents, along with the beads, into a beaker. • 8. To rinse the tube, add another 1.0 mL of DM water into the tube, close the cap, shake well and transfer this into the same beaker. • 9. Repeat Step no. 8 one more time so that the tube is rinsed well and the compound of the present invention to be tested is transferred to the beaker. • 10. Add 16.8 mL of DM water into the beaker and stir well. • 11. The homogeneous dispersion can then be decanted into a glass vial, immediately, to separate the Zirconia beads. • 12. Immediately use this sample for biological testing. • 13. Further dilutions can be prepared by taking appropriate quantity of the aliquot of Step 10, immediately after stirring, and diluting as per requirement. The sample solution must be well mixed just before biological testing.
Diet incorporation method was used, in which and semi-synthetic diet was incorporated into the test solution when the temperature is approximately 50° C. in the bioassay containers and stirred thoroughly for properly mixing and then was allowed to cool for 30 min. The solidified diet was cut into equal pieces, and then each piece was transferred in one cell in Bio-assay trays. A single third instar starved larva was released into each of these cells of bioassay trays and the tray was covered with the lid. The bio-assay trays were kept under laboratory conditions at a temperature of 25° C. and Relative Humidity of 70%. Observations on dead, moribund and live larvae were recorded at 96 h after the release of larvae. Percent mortality was calculated by combining dead and moribund larvae. The following compound numbers

SMILES | mortality at 300 ppm
CCCNC(=O)c1c(NC(=O)c2cc(OC)nn2-c2ncccc2Cl)c(Br)cc2ccnn12 [Compound 120, 5-bromo-6-(1-(3-chloropyridin-2-yl)-3-methoxy-1H-pyrazole-5-carboxamido)-N-propylpyrazolo[1,5-a]pyridine-7-carboxamide] | > 70%
CCCNC(=O)c1c(NC(=O)c2cc(Cn3nnc(C(F)(F)F)n3)nn2-c2ncccc2Cl)c(Cl)cc2ccnn12 [Compound 155, 5-chloro-6-(1-(3-chloropyridin-2-yl)-3-((5-(trifluoromethyl)-2H-tetrazol-2-yl)methyl)-1H-pyrazole-5-carboxamido)-N-propylpyrazolo[1,5-a]pyridine-7-carboxamide] | > 70%
O=C(Nc1c(Cl)cc2ccnn2c1C(=O)NCC(F)(F)F)c1cc(Br)nn1-c1ncccc1Cl [Compound 143, 6-(3-bromo-1-(3-chloropyridin-2-yl)-1H-pyrazole-5-carboxamido)-5-chloro-N-(2,2,2-trifluoroethyl)pyrazolo[1,5-a]pyridine-7-carboxamide] | > 70%
COc1cc(C(=O)Nc2c(C)cc3ccnn3c2C(=O)NCC2CCCCO2)n(-c2ncccc2Cl)n1 (stereo not shown) [Compound 213, 6-(1-(3-chloropyridin-2-yl)-3-methoxy-1H-pyrazole-5-carboxamido)-5-methyl-N-((tetrahydro-2H-pyran-2-yl)methyl)pyrazolo[1,5-a]pyridine-7-carboxamide] | > 70%

What follows are molecules tested on Plutella xylostella (assay: whole plant or invertebrate). Settings: foliar, cabbage leaf dip, second instar larvae, dead and moribund combined, 72 h after release.
Format: in vivo
Experimental: as §1, §2
Leaf dip method was used for screening, wherein the required quantity of the compounds were weighed and dissolved in the test solution into the tube and vortex at 2000 rpm with Zirconia beads for 90 min for proper mixing, then mixed with 0.01% Triton-X solution to get the desired test concentration. Cabbage leaves were dipped in the solution for 10 seconds, shade dried for 20 min and then transferred to bioassay trays. Single second instar larva was released into each cell and the tray was covered with lid. The bio-assay trays were kept under laboratory conditions at a temperature of 25° C. and relative humidity of 70%. Observations on dead, moribund and live larvae were recorded at 72 h after the release. Percent mortality was calculated by combining dead and moribund larvae. The following compound num.

SMILES | mortality at 300 ppm
C#CCNC(=O)c1c(NC(=O)c2cc(OCC(F)(F)F)nn2-c2ncccc2Cl)c(C)cc2ccnn12 [Compound 48, 6-(1-(3-chloropyridin-2-yl)-3-(2,2,2-trifluoroethoxy)-1H-pyrazole-5-carboxamido)-5-methyl-N-(prop-2-yn-1-yl)pyrazolo[1,5-a]pyridine-7-carboxamide] | > 70%
Cc1cc2ccnn2c(C(=O)NC2CONC2=O)c1NC(=O)c1cc(C(F)(F)F)nn1-c1ncccc1Cl (stereo not shown) [Compound 128, 6-(1-(3-chloropyridin-2-yl)-3-(trifluoromethyl)-1H-pyrazole-5-carboxamido)-5-methyl-N-(3-oxoisoxazolidin-4-yl)pyrazolo[1,5-a]pyridine-7-carboxamide] | > 70%
COCCNC(=O)c1c(NC(=O)c2cc(Br)nn2-c2ncccc2Cl)c(Br)cc2ccnn12 [Compound 88, 5-bromo-6-(3-bromo-1-(3-chloropyridin-2-yl)-1H-pyrazole-5-carboxamido)-N-(2-methoxyethyl)pyrazolo[1,5-a]pyridine-7-carboxamide] | > 70%
CONC(=O)c1c(NC(=O)c2cc(OC)nn2-c2ncccc2Cl)c(Cl)cc2ccnn12 [Compound 150, 5-chloro-6-(1-(3-chloropyridin-2-yl)-3-methoxy-1H-pyrazole-5-carboxamido)-N-methoxypyrazolo[1,5-a]pyridine-7-carboxamide] | > 70%
CCC(COC)NC(=O)c1c(NC(=O)c2cc(Br)nn2-c2ncccc2Cl)c(C)cc2ccnn12 (stereo not shown) [Compound 192, 6-(3-bromo-1-(3-chloropyridin-2-yl)-1H-pyrazole-5-carboxamido)-N-(1-methoxybutan-2-yl)-5-methylpyrazolo[1,5-a]pyridine-7-carboxamide] | > 70%
Cc1cc2ccnn2c(C(=O)N2CCC2)c1NC(=O)c1cc(Br)nn1-c1ncccc1Cl [Compound 34, N-(7-(azetidine-1-carbonyl)-5-methylpyrazolo[1,5-a]pyridin-6-yl)-3-bromo-1-(3-chloropyridin-2-yl)-1H-pyrazole-5-carboxamide] | > 70%
COCCNC(=O)c1c(NC(=O)c2cc(C(F)(F)F)nn2-c2ncccc2Cl)c(C)cc2ccnn12 [Compound 118, 6-(1-(3-chloropyridin-2-yl)-3-(trifluoromethyl)-1H-pyrazole-5-carboxamido)-N-(2-methoxyethyl)-5-methylpyrazolo[1,5-a]pyridine-7-carboxamide] | > 70%
COc1cc(C(=O)Nc2c(C)cc3ccnn3c2C(=O)NOC(C)C)n(-c2ncccc2Cl)n1 [Compound 113, 6-(1-(3-chloropyridin-2-yl)-3-methoxy-1H-pyrazole-5-carboxamido)-N-isopropoxy-5-methylpyrazolo[1,5-a]pyridine-7-carboxamide] | > 70%
CCCNC(=O)c1c(NC(=O)c2cc(OC3CSC3)nn2-c2ncccc2Cl)c(C)cc2ccnn12 [Compound 103, 6-(1-(3-chloropyridin-2-yl)-3-(thietan-3-yloxy)-1H-pyrazole-5-carboxamido)-5-methyl-N-propylpyrazolo[1,5-a]pyridine-7-carboxamide] | > 70%
CNC(=O)c1c(NC(=O)c2cc(Oc3cc(C(F)(F)F)nn3C)nn2-c2ncccc2Cl)c(C)cc2ccnn12 [Compound 69, 6-(1-(3-chloropyridin-2-yl)-3-((1-methyl-3-(trifluoromethyl)-1H-pyrazol-5-yl)oxy)-1H-pyrazole-5-carboxamido)-N,5-dimethylpyrazolo[1,5-a]pyridine-7-carboxamide] | > 70%
Cc1cc2ccnn2c(C(=O)NOC(C)C)c1NC(=O)c1cc(Br)nn1-c1ncccc1Cl [Compound 105, 6-(3-bromo-1-(3-chloropyridin-2-yl)-1H-pyrazole-5-carboxamido)-N-isopropoxy-5-methylpyrazolo[1,5-a]pyridine-7-carboxamide] | > 70%
COc1cc(C(=O)Nc2c(C)cc3ccnn3c2C(=O)NC(C)C(C)C)n(-c2ncccc2Cl)n1 (stereo not shown) [Compound 212, 6-(1-(3-chloropyridin-2-yl)-3-methoxy-1H-pyrazole-5-carboxamido)-5-methyl-N-(3-methylbutan-2-yl)pyrazolo[1,5-a]pyridine-7-carboxamide] | > 70%
COc1cc(C(=O)Nc2c(Br)cc3ccnn3c2C(=O)NC2(C)CC2)n(-c2ncccc2Cl)n1 [Compound 223, 5-bromo-6-(1-(3-chloropyridin-2-yl)-3-methoxy-1H-pyrazole-5-carboxamido)-N-(1-methylcyclopropyl)pyrazolo[1,5-a]pyridine-7-carboxamide] | > 70%
Cc1cc2ccnn2c(C(=O)NC2CC2)c1NC(=O)c1cc(Oc2cc(C(F)(F)F)nn2C)nn1-c1ncccc1Cl [Compound 79, 6-(1-(3-chloropyridin-2-yl)-3-((1-methyl-3-(trifluoromethyl)-1H-pyrazol-5-yl)oxy)-1H-pyrazole-5-carboxamido)-N-cyclopropyl-5-methylpyrazolo[1,5-a]pyridine-7-carboxamide] | > 70%
CCNC(=O)c1c(NC(=O)c2cc(OC3CSC3)nn2-c2ncccc2Cl)c(C)cc2ccnn12 [Compound 144, 6-(1-(3-chloropyridin-2-yl)-3-(thietan-3-yloxy)-1H-pyrazole-5-carboxamido)-N-ethyl-5-methylpyrazolo[1,5-a]pyridine-7-carboxamide] | > 70%
CCC(COC)NC(=O)c1c(NC(=O)c2cc(OC)nn2-c2ncccc2Cl)c(C)cc2ccnn12 (stereo not shown) [Compound 205, 6-(1-(3-chloropyridin-2-yl)-3-methoxy-1H-pyrazole-5-carboxamido)-N-(1-methoxybutan-2-yl)-5-methylpyrazolo[1,5-a]pyridine-7-carboxamide] | > 70%
Cc1cc2ccnn2c(C(=O)NCC2CC2)c1NC(=O)c1cc(Oc2cc(C(F)(F)F)nn2C)nn1-c1ncccc1Cl [Compound 80, 6-(1-(3-chloropyridin-2-yl)-3-((1-methyl-3-(trifluoromethyl)-1H-pyrazol-5-yl)oxy)-1H-pyrazole-5-carboxamido)-N-(cyclopropylmethyl)-5-methylpyrazolo[1,5-a]pyridine-7-carboxamide] | > 70%
COc1cc(C(=O)Nc2c(C)cc3ccnn3c2C(=O)N2CC(F)(F)C2)n(-c2ncccc2Cl)n1 [Compound 39, 1-(3-chloropyridin-2-yl)-N-(7-(3,3-difluoroazetidine-1-carbonyl)-5-methylpyrazolo[1,5-a]pyridin-6-yl)-3-methoxy-1H-pyrazole-5-carboxamide] | > 70%
